From the NIST ThermoML archive (doi:10.1016/j.tca.2009.06.015)

Key:
[1] = refractive index (Na D-line) (dimensionless); xn = mol fraction of the nth substance listed; conditions: 101 kPa, Liquid, Standard Abbe refractometry
[2] = xn = mol fraction of the nth substance listed; conditions: 101 kPa, Liquid; for viscosity: Capillary tube (Ostwald / Ubbelohde) method; for mass density: Vibrating tube method

CC#N [acetonitrile] + CC(C)O
Conditions | mass density, [2] [kg/m3] | refractive index, [1] | viscosity, [2] [mPa·s]
293.15 K, x1 = 0.0496 | 784.97 | 1.3757 | 1.972
293.15 K, x1 = 0.0906 | 784.72 | 1.3751 | 1.688
293.15 K, x1 = 0.1529 | 784.31 | 1.3737 | 1.368
293.15 K, x1 = 0.2022 | 783.9 | 1.3726 | 1.176
293.15 K, x1 = 0.2783 | 783.36 | 1.3705 | 0.9608
293.15 K, x1 = 0.3678 | 782.71 | 1.3677 | 0.7912
293.15 K, x1 = 0.4768 | 782.02 | 1.364 | 0.6502
293.15 K, x1 = 0.6132 | 781.53 | 1.359 | 0.51
293.15 K, x1 = 0.7714 | 781.13 | 1.3528 | 0.4156
293.15 K, x1 = 0.9207 | 781.26 | 1.3469 | 0.3716
293.15 K, x1 = 1 | 782.04 | 1.3436 | 0.3542
298.15 K, x1 = 0.0496 | 780.76 | 1.3733 | 1.691
298.15 K, x1 = 0.0906 | 780.3 | 1.3724 | 1.461
298.15 K, x1 = 0.1529 | 779.7 | 1.3713 | 1.207
298.15 K, x1 = 0.2022 | 779.7 | 1.3702 | 1.044
298.15 K, x1 = 0.2783 | 779.2 | 1.3687 | 0.8677
298.15 K, x1 = 0.3678 | 777.65 | 1.3667 | 0.7248
298.15 K, x1 = 0.4768 | 778.79 | 1.3635 | 0.6062
298.15 K, x1 = 0.6132 | 776.2 | 1.3591 | 0.4735
298.15 K, x1 = 0.7714 | 775.79 | 1.3528 | 0.384
298.15 K, x1 = 0.9207 | 775.95 | 1.3452 | 0.3499
298.15 K, x1 = 1 | 776.64 | 1.3411 | 0.3369
303.15 K, x1 = 0.0496 | 776.32 | 1.3715 | 1.474
303.15 K, x1 = 0.0906 | 775.84 | 1.3707 | 1.288
303.15 K, x1 = 0.1529 | 775.13 | 1.3694 | 1.069
303.15 K, x1 = 0.2022 | 774.54 | 1.3684 | 0.9367
303.15 K, x1 = 0.2783 | 773.97 | 1.3666 | 0.7975
303.15 K, x1 = 0.3678 | 772.88 | 1.3641 | 0.6615
303.15 K, x1 = 0.4768 | 771.84 | 1.3608 | 0.5492
303.15 K, x1 = 0.6132 | 771.13 | 1.3561 | 0.4429
303.15 K, x1 = 0.7714 | 770.52 | 1.35 | 0.3617
303.15 K, x1 = 0.9207 | 770.59 | 1.3433 | 0.3311
303.15 K, x1 = 1 | 771.21 | 1.339 | 0.3254
308.15 K, x1 = 0.0496 | 771.86 | 1.3694 | 1.296
308.15 K, x1 = 0.0906 | 771.31 | 1.3687 | 1.15
308.15 K, x1 = 0.1529 | 770.57 | 1.3679 | 0.9576
308.15 K, x1 = 0.2022 | 769.92 | 1.367 | 0.846
308.15 K, x1 = 0.2783 | 768.98 | 1.3657 | 0.7168
308.15 K, x1 = 0.3678 | 767.8 | 1.3637 | 0.6057
308.15 K, x1 = 0.4768 | 766.44 | 1.3605 | 0.5051
308.15 K, x1 = 0.6132 | 765.75 | 1.3557 | 0.4111
308.15 K, x1 = 0.7714 | 765.26 | 1.3491 | 0.3442
308.15 K, x1 = 0.9207 | 765.18 | 1.3417 | 0.3202
308.15 K, x1 = 1 | 765.75 | 1.3371 | 0.3082

CCC(C)O (centres undefined) [butan-2-ol] + CC#N
Conditions | mass density, [2] [kg/m3] | refractive index, [1] | viscosity, [2] [mPa·s]
293.15 K, x2 = 0 | 806.57 | 1.3966 | 3.912
293.15 K, x2 = 0.0844 | 804.53 | 1.3952 | 2.503
293.15 K, x2 = 0.1644 | 802.5 | 1.393 | 1.654
293.15 K, x2 = 0.2516 | 800.41 | 1.3899 | 1.376
293.15 K, x2 = 0.3369 | 798.33 | 1.386 | 1.089
293.15 K, x2 = 0.4444 | 795.68 | 1.3804 | 0.8564
293.15 K, x2 = 0.5382 | 793.35 | 1.3751 | 0.6953
293.15 K, x2 = 0.6425 | 790.7 | 1.3686 | 0.5565
293.15 K, x2 = 0.761 | 788.1 | 1.361 | 0.4636
293.15 K, x2 = 0.8715 | 785.92 | 1.3534 | 0.3984
293.15 K, x2 = 0.9588 | 783.48 | 1.3467 | 0.3663
298.15 K, x2 = 0 | 802.56 | 1.3946 | 3.132
298.15 K, x2 = 0.0844 | 800.28 | 1.3918 | 2.135
298.15 K, x2 = 0.1644 | 798.07 | 1.3893 | 1.574
298.15 K, x2 = 0.2516 | 795.79 | 1.3865 | 1.218
298.15 K, x2 = 0.3369 | 793.63 | 1.383 | 0.992
298.15 K, x2 = 0.4444 | 790.96 | 1.3782 | 0.7937
298.15 K, x2 = 0.5382 | 788.5 | 1.3734 | 0.6498
298.15 K, x2 = 0.6425 | 785.67 | 1.3674 | 0.518
298.15 K, x2 = 0.761 | 782.65 | 1.3597 | 0.4216
298.15 K, x2 = 0.8715 | 779.99 | 1.3518 | 0.3868
298.15 K, x2 = 0.9588 | 777.71 | 1.3448 | 0.3632
303.15 K, x2 = 0 | 798.26 | 1.3924 | 2.534
303.15 K, x2 = 0.0844 | 795.95 | 1.3902 | 1.794
303.15 K, x2 = 0.1644 | 793.74 | 1.3886 | 1.383
303.15 K, x2 = 0.2516 | 791.38 | 1.386 | 1.082
303.15 K, x2 = 0.3369 | 789.07 | 1.3829 | 0.8873
303.15 K, x2 = 0.4444 | 786.17 | 1.3779 | 0.7129
303.15 K, x2 = 0.5382 | 783.62 | 1.3722 | 0.5936
303.15 K, x2 = 0.6425 | 780.73 | 1.3656 | 0.4865
303.15 K, x2 = 0.761 | 777.45 | 1.3575 | 0.4019
303.15 K, x2 = 0.8715 | 774.43 | 1.3495 | 0.3612
303.15 K, x2 = 0.9588 | 772.05 | 1.3426 | 0.3414
308.15 K, x2 = 0 | 793.96 | 1.3905 | 2.172
308.15 K, x2 = 0.0844 | 791.55 | 1.3876 | 1.572
308.15 K, x2 = 0.1644 | 789.27 | 1.3853 | 1.213
308.15 K, x2 = 0.2516 | 786.77 | 1.3825 | 0.9642
308.15 K, x2 = 0.3369 | 784.37 | 1.3799 | 0.8021
308.15 K, x2 = 0.4444 | 781.35 | 1.3753 | 0.6524
308.15 K, x2 = 0.5382 | 778.69 | 1.3713 | 0.5479
308.15 K, x2 = 0.6425 | 775.68 | 1.3659 | 0.4533
308.15 K, x2 = 0.761 | 772.27 | 1.3592 | 0.379
308.15 K, x2 = 0.8715 | 768.99 | 1.351 | 0.3437
308.15 K, x2 = 0.9588 | 766.51 | 1.3423 | 0.3238
